# Results from ChEMBL document CHEMBL1145526, “Synthesis of 11C-labelled (R)-OHDMI and CFMME and their evaluation as candidate radioligands for imaging central norepinephrine transporters with PET” (Bioorg Med Chem, 2007).
# How the values were obtained:
# [1] = biological target: Sodium-dependent noradrenaline transporter (Homo sapiens, UniProt P23975)
# Brain [2] = assay: Drug uptake in cynomolgus monkey brain assessed as radio activity at 1.35 mCi after 24 mins; assay type: ADME, tissue-based, Macaca fascicularis; conditions: in vivo, 0.4 h
# Cynomolgus monkey [3] = assay: Ratio of drug level in cerebellum to thalamus in cynomolgus monkey at 1.35 mCi after 93 mins; assay type: ADME, organism-based, Macaca fascicularis; conditions: in vivo, 1.55 h
# Cynomolgus monkey [4] = assay: Ratio of drug level in cerebellum to occipital cortex in cynomolgus monkey at 1.35 mCi after 93 mins; assay type: ADME, organism-based, Macaca fascicularis; conditions: in vivo, 1.55 h
# Cynomolgus monkey [5] = assay: Ratio of drug level in cerebellum to locus coreuleus in cynomolgus monkey at 1.35 mCi after 93 mins; assay type: ADME, organism-based, Macaca fascicularis; conditions: in vivo, 1.55 h
# Cynomolgus monkey [6] = assay: Ratio of drug level in cerebellum to mesencephalon in cynomolgus monkey at 1.35 mCi after 93 mins; assay type: ADME, organism-based, Macaca fascicularis; conditions: in vivo, 1.55 h
# Cynomolgus monkey [7] = assay: Ratio of drug level in cerebellum to striatum in cynomolgus monkey at 1.35 mCi after 93 mins; assay type: ADME, organism-based, Macaca fascicularis; conditions: in vivo, 1.55 h
# Brain [8] = assay: Drug uptake in cynomolgus monkey brain assessed as radio activity at 1.35 mCi after 42 mins; assay type: ADME, tissue-based, Macaca fascicularis; conditions: in vivo, 0.7 h
# Cynomolgus monkey [9] = assay: Ratio of drug level in thalamus to striatum in cynomolgus monkey; assay type: ADME, organism-based, Macaca fascicularis; conditions: in vivo
# Brain [10] = assay: Drug uptake in cynomolgus monkey brain assessed as radio activity at 1.41 mCi after 80 mins; assay type: ADME, tissue-based, Macaca fascicularis; conditions: in vivo
# Cynomolgus monkey [11] = assay: Ratio of drug level in striatum to occipital cortex in cynomolgus monkey at 1.41 mCi after 93 mins; assay type: ADME, organism-based, Macaca fascicularis; conditions: in vivo, 1.55 h
# Cynomolgus monkey [12] = assay: Ratio of drug level in striatum to thalamus in cynomolgus monkey at 1.41 mCi after 93 mins; assay type: ADME, organism-based, Macaca fascicularis; conditions: in vivo, 1.55 h
# Cynomolgus monkey [13] = assay: Ratio of drug level in striatum to lower brainstem in cynomolgus monkey at 1.41 mCi after 93 mins; assay type: ADME, organism-based, Macaca fascicularis; conditions: in vivo, 1.55 h
# Cynomolgus monkey [14] = assay: Ratio of drug level in striatum to mesencephalon in cynomolgus monkey at 1.41 mCi after 93 mins; assay type: ADME, organism-based, Macaca fascicularis; conditions: in vivo, 1.55 h
# Cynomolgus monkey [15] = assay: Ratio of drug level in striatum to cerebellum in cynomolgus monkey at 1.41 mCi after 93 mins; assay type: ADME, organism-based, Macaca fascicularis; conditions: in vivo, 1.55 h
# Cynomolgus monkey [16] = assay: Ratio of drug level in NET-rich thalamus to NET-poor striatum in cynomolgus monkey; assay type: ADME, organism-based, Macaca fascicularis; conditions: in vivo
# Sequence of Sodium-dependent noradrenaline transporter (P23975 whole entry): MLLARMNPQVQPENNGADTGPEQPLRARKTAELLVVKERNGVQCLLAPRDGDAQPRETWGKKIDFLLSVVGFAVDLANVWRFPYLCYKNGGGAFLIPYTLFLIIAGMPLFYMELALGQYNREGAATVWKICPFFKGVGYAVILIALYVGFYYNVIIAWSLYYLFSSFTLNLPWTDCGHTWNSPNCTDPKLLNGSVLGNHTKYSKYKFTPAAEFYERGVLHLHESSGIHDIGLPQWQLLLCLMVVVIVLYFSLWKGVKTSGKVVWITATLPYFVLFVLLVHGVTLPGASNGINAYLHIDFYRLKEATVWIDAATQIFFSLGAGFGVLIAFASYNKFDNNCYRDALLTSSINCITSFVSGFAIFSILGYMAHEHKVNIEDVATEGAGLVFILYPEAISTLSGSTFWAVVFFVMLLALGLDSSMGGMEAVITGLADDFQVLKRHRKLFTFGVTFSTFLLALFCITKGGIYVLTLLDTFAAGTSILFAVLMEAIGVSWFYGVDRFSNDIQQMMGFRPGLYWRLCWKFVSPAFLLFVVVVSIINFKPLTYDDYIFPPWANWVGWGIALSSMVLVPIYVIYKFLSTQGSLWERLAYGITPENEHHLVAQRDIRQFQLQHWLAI
compound,measurement,setting,value
COc1ccccc1O[C@@H](c1ccccc1)[C@@H]1CNCCO1,Ki,[1],7.93 nM
[11CH3]Oc1ccc(F)cc1C[C@](O)(C1CCCC1)[C@@H]1CNCCO1,Drug uptake,Brain [2],3.5 %ID
same,Ratio,Cynomolgus monkey [3],1.35
same,Ratio,Cynomolgus monkey [4],1.3
same,Ratio,Cynomolgus monkey [5],1.3
same,Ratio,Cynomolgus monkey [6],1.2
same,Ratio,Cynomolgus monkey [7],1.2
same,Ratio,Brain [8],3.5 %ID
[11CH3]NC[C@@H](O)CC12CCC(c3ccccc31)c1ccccc12,Ratio,Cynomolgus monkey [9],1.5
COc1ccc(F)cc1C[C@](O)(C1CCCC1)[C@@H]1CNCCO1,Ki,[1],10.8 nM
[11CH3]NC[C@@H](O)CN1c2ccccc2CCc2ccccc21,Drug uptake,Brain [10],1.1 %ID
same,Ratio,Cynomolgus monkey [11],1.35
same,Ratio,Cynomolgus monkey [12],1.35
same,Ratio,Cynomolgus monkey [13],1.2
same,Ratio,Cynomolgus monkey [14],1.2
same,Ratio,Cynomolgus monkey [15],1
same,Ratio,Cynomolgus monkey [16],1.35
CNC[C@@H](O)CN1c2ccccc2CCc2ccccc21,Ki,[1],8.29 nM
